According to patent publication US8048892B2, “Azaquinolone based compounds exhibiting prolyl hydroxylase inhibitory activity, compositions, and uses thereof” (Amgen Inc., priority 2006, dated 2011):

molecular target: HIF PHD2 (Homo sapiens, UniProt Q9GZT9); assay: PHD2 inhibition assay (TR-FRET, VCB-Eu detection of hydroxylated P564-HIF1α peptide); assay type: biochemical; conditions: 2 nM PHD2, 100 nM P564-HIF1α peptide, 0.25 μM 2-oxoglutarate
Description: Inhibition of HIF PHD2 activity was quantified utilizing the TR-FRET technology. HIF PHD2 catalyzes a hydroxyl modification on the proline residue of the P564-HIF1α peptide substrate (Biotin-DLEMLAPYIPMDDDFQL (SEQ ID NO: 7)) resulting in recognition and binding of the europylated Von Hippel-Lindau protein (pVHL), elongin B and elongin C heterotrimeric (VCB-Eu) complex.
The PHD2 inhibition assay was executed by addition of freshly dissolved FeCl2 to 178.57 μM (100 μM final concentration) in PHD2 Reaction Buffer containing 30 mM MES, pH 6, 10 mM NaCl, 0.25% Brij-35, 0.01% BSA, and 1% DMSO. 28 μL of the iron solution and 2 μL of inhibitor compounds serially diluted in 100% DMSO (5% DMSO final) were added to black polypropylene 96-well microtiter plates. To that, 10 μL of 10 nM PHD2 (2 nM final) was added to all wells of the plate except for the 8 wells of column 12 (LO control), and allowed to incubate at room temperature on the shaker for one hour. Column 6 was the HI control containing PHD2 enzyme and 5% DMSO vehicle, but no inhibitor compound. To initiate the PHD2 enzymatic reaction, 10 μL of a solution containing 500 nM P564-HIF1α peptide (100 nM final), 10 mM ascorbic acid (2 mM final), and 1.25 μM 2-oxoglutarate (α-ketoglutarate; 0.25 μM final) in PHD2 Reaction Buffer was added to all wells of the plate and allowed to incubate on the shaker at room temperature for one hour.
The reaction was terminated by addition of 25 μL TR-FRET Buffer (50 mM TRIS-HCl, pH 9, 100 mM NaCl, 0.05% BSA, and 0.5% Tween-20) containing 150 mM succinate (product inhibitor; 50 mM final), 75 nM streptavidin-APC (25 nM final), and 7.5 nM VCB-Eu (2.5 nM final). The TR-FRET detection reagents were placed on a shaker for 1 hour to reach binding equilibrium before reading on the Discovery platform (PerkinElmer). Europium is excited at 315 nm and phosphoresces at 615 nm with a large Stoke's shift. APC, in turn, emits at 655 nm upon excitation at 615 nm. The TR-FRET signal is measured as the ratio of the APC 655 nm signal divided by the internal europium reference 615 nm emission signal.
The POC (percentage of control) was determined by comparing the signal from hydroxylated peptide substrate in the enzyme reaction containing inhibitor compound with that from PHD2 enzyme with DMSO vehicle alone (HI control), and no enzyme (LO control). POC was calculated using the formula: % control (POC)=(cpd−average LO)/(average HI−average LO)*100. Data (consisting of POC and inhibitor concentration in μM) was fitted to a 4-parameter equation (y=A+((B−A)/(1+((x/C)^D))), where A is the minimum y (POC) value, B is the maximum y (POC), C is the x (cpd concentration) at the point of inflection and D is the slope factor) using a Levenburg-Marquardt non-linear regression algorithm.

HIF PHD2, sequence (Q9GZT9 whole entry): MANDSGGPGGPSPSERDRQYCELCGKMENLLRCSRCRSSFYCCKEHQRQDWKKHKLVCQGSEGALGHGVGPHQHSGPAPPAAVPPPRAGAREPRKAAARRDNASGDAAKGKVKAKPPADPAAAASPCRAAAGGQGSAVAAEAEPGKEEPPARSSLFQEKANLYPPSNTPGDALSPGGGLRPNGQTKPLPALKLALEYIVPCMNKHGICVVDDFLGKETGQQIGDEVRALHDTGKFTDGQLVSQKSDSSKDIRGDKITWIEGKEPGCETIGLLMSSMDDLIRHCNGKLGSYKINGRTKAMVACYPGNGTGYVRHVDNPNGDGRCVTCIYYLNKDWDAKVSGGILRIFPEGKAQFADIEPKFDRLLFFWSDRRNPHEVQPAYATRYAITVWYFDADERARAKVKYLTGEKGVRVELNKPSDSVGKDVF

Row | SMILES | IC50 [nM]
1 | Cc1ccc(-c2ccc3c(O)c(C(=O)NCC(=O)O)c(=O)n(C)c3n2)cc1 [Example 15, N-((4-Hydroxy-1-methyl-7-(4-methylphenyl)-2-oxo-1,2-dihydro-1,8-naphthyridin-3-yl)carbonyl)glycine] | 100 to 500
2 | COc1ccc(-c2ccc3c(O)c(C(=O)NCC(=O)O)c(=O)n(C)c3n2)cc1 [Example 16, N-((4-Hydroxy-1-methyl-7-(4-(methyloxy)phenyl)-2-oxo-1,2-dihydro-1,8-naphthyridin-3-yl)carbonyl)glycine] | 50 to 100
3 | Cn1c(=O)c(C(=O)NCC(=O)O)c(O)c2ccc(-c3cccnc3)nc21 [Example 17, N-((4-Hydroxy-1-methyl-2-oxo-7-(3-pyridinyl)-1,2-dihydro-1,8-naphthyridin-3-yl)carbonyl)glycine] | < 50
4 | Cn1c(=O)c(C(=O)NCC(=O)O)c(O)c2ccc(C3CCCCC3)nc21 [Example 18, 2-(7-Cyclohexyl-4-hydroxy-1-methyl-2-oxo-1,2-dihydro-1,8-naphthyridine-3-carboxamido)acetic acid] | 100 to 500
5 | Cn1c(=O)c(C(=O)NCC(=O)O)c(O)c2ccc(C#C[Si](C)(C)C)nc21 [Example 19, 2-(4-Hydroxy-1-methyl-2-oxo-7-(2-(trimethylsilyl)ethynyl)-1,2-dihydro-1,8-naphthyridine-3-carboxamido)acetic acid] | 50 to 100
6 | C#Cc1ccc2c(O)c(C(=O)NCC(=O)O)c(=O)n(C)c2n1 [Example 20, 2-(7-Ethynyl-4-hydroxy-1-methyl-2-oxo-1,2-dihydro-1,8-naphthyridine-3-carboxamido)acetic acid] | < 50
7 | Cn1c(=O)c(C(=O)NCC(=O)O)c(O)c2ccc(C#CC3CC3)nc21 [Example 21, 2-(7-(2-Cyclopropylethynyl)-4-hydroxy-1-methyl-2-oxo-1,2-dihydro-1,8-naphthyridine-3-carboxamido)acetic acid] | < 50
8 | Cn1c(=O)c(C(=O)NCC(=O)O)c(O)c2ccc(N3CCCCC3)nc21 [Example 22, 2-(4-Hydroxy-1-methyl-2-oxo-7-(piperidin-1-yl)-1,2-dihydro-1,8-naphthyridine-3-carboxamido)acetic acid] | 50 to 100
9 | Cn1c(=O)c(C(=O)NCC(=O)O)c(O)c2ccc(N3CCOCC3)nc21 [Example 23, 2-(4-Hydroxy-1-methyl-7-morpholino-2-oxo-1,2-dihydro-1,8-naphthyridine-3-carboxamido)acetic acid] | 100 to 500
10 | Cn1c(=O)c(C(=O)NCC(=O)O)c(O)c2ccc(N3CCC(C(F)(F)F)CC3)nc21 [Example 24, 2-(4-Hydroxy-1-methyl-2-oxo-7-(4-(trifluoromethyl)piperidin-1-yl)-1,2-dihydro-1,8-naphthyridine-3-carboxamido)acetic acid] | 500 to 1000
11 | COc1ccc2c(O)c(C(=O)NCC(=O)O)c(=O)n(C)c2n1 [Example 25, 2-(4-Hydroxy-7-methoxy-1-methyl-2-oxo-1,2-dihydro-1,8-naphthyridine-3-carboxamido)acetic acid] | < 50
12 | Cn1c(=O)c(C(=O)NCC(=O)O)c(O)c2cc(C3=CCOCC3)cnc21 [Example 26, 2-(6-(3,6-Dihydro-2 H-pyran-4-yl)-4-hydroxy-1-methyl-2-oxo-1,2-dihydro-1,8-naphthyridine-3-carboxamido)acetic acid] | 50 to 100
13 | Cc1ccnc(-c2cnc3c(c2)c(O)c(C(=O)NCC(=O)O)c(=O)n3C)n1 [Example 27, 2-(4-Hydroxy-1-methyl-6-(4-methylpyrimidin-2-yl)-2-oxo-1,2-dihydro-1,8-naphthyridine-3-carboxamido)acetic acid] | < 50

Further lines, results first:

Row | IC50 [nM] | SMILES
14 | < 50 | Cn1c(=O)c(C(=O)NCC(=O)O)c(O)c2cc(-c3nccc(C(F)(F)F)n3)cnc21 [Example 28]
15 | < 50 | COc1ccnc(-c2cnc3c(c2)c(O)c(C(=O)NCC(=O)O)c(=O)n3C)n1 [Example 29, 2-(4-Hydroxy-6-(4-methoxypyrimidin-2-yl)-1-methyl-2-oxo-1,2-dihydro-1,8-naphthyridine-3-carboxamido)acetic acid]
16 | 50 to 100 | Cc1cc(C)nc(-c2cnc3c(c2)c(O)c(C(=O)NCC(=O)O)c(=O)n3C)n1 [Example 30, 2-(6-(4,6-Dimethylpyrimidin-2-yl)-4-hydroxy-1-methyl-2-oxo-1,2-dihydro-1,8-naphthyridine-3-carboxamido)acetic acid]
17 | < 50 | Cn1c(=O)c(C(=O)NCC(=O)O)c(O)c2cc(-c3cc(Cl)ncn3)cnc21 [Example 31, 2-(6-(6-Chloropyrimidin-4-yl)-4-hydroxy-1-methyl-2-oxo-1,2-dihydro-1,8-naphthyridine-3-carboxamido)acetic acid]
18 | 50 to 100 | Cn1c(=O)c(C(=O)NCC(=O)O)c(O)c2cc(-c3cccc(C(F)(F)F)n3)cnc21 [Example 32, N-((4-Hydroxy-1-methyl-2-oxo-6-(6-(trifluoromethyl)-2-pyridinyl)-1,2-dihydro-1,8-naphthyridin-3-yl)carbonyl)glycine]
19 | 50 to 100 | CN(C)c1ccccc1-c1cnc2c(c1)c(O)c(C(=O)NCC(=O)O)c(=O)n2C [Example 33, 2-(6-(2-(Dimethylamino)phenyl)-4-hydroxy-1-methyl-2-oxo-1,2-dihydro-1,8-naphthyridine-3-carboxamido)acetic acid]
20 | < 50 | Cn1c(=O)c(C(=O)NCC(=O)O)c(O)c2cc(C3CCOCC3)cnc21 [Example 34, 2-(4-Hydroxy-1-methyl-2-oxo-6-(tetrahydro-2 H-pyran-4-yl)-1,2-dihydro-1,8-naphthyridine-3-carboxamido)acetic acid]
21 | 50 to 100 | Cc1ccccc1-c1cnc2c(c1)c(O)c(C(=O)NCC(=O)O)c(=O)n2C [Example 35, N-((4-Hydroxy-1-methyl-6-(2-methylphenyl)-2-oxo-1,2-dihydro-1,8-naphthyridin-3-yl)carbonyl)glycine]
22 | 100 to 500 | CC(C)Oc1ccccc1-c1cnc2c(c1)c(O)c(C(=O)NCC(=O)O)c(=O)n2C [Example 36, N-((4-Hydroxy-1-methyl-6-(2-((1-methylethyl)oxy)phenyl)-2-oxo-1,2-dihydro-1,8-naphthyridin-3-yl)carbonyl)glycine]
23 | 100 to 500 | CC(C)Oc1ccc(-c2cnc3c(c2)c(O)c(C(=O)NCC(=O)O)c(=O)n3C)cc1 [Example 37, N-((4-Hydroxy-1-methyl-6-(4-((1-methylethyl)oxy)phenyl)-2-oxo-1,2-dihydro-1,8-naphthyridin-3-yl)carbonyl)glycine]
24 | 100 to 500 | CC(C)Oc1cccc(-c2cnc3c(c2)c(O)c(C(=O)NCC(=O)O)c(=O)n3C)c1 [Example 38, N-((4-Hydroxy-1-methyl-6-(3-((1-methylethyl)oxy)phenyl)-2-oxo-1,2-dihydro-1,8-naphthyridin-3-yl)carbonyl)glycine]
25 | 50 to 100 | Cn1c(=O)c(C(=O)NCC(=O)O)c(O)c2cc(-c3ccc4c(c3)CCO4)cnc21 [Example 39, N-((6-(2,3-Dihydro-1-benzofuran-5-yl)-4-hydroxy-1-methyl-2-oxo-1,2-dihydro-1,8-naphthyridin-3-yl)carbonyl)glycine]
26 | 100 to 500 | Cc1cccc(C)c1-c1cnc2c(c1)c(O)c(C(=O)NCC(=O)O)c(=O)n2C [Example 40, N-((6-(2,6-Dimethylphenyl)-4-hydroxy-1-methyl-2-oxo-1,2-dihydro-1,8-naphthyridin-3-yl)carbonyl)glycine]
27 | 50 to 100 | Cn1c(=O)c(C(=O)NCC(=O)O)c(O)c2cc(-c3ccccc3C(N)=O)cnc21 [Example 41, N-((6-(2-(Aminocarbonyl)phenyl)-4-hydroxy-1-methyl-2-oxo-1,2-dihydro-1,8-naphthyridin-3-yl)carbonyl)glycine]
28 | 50 to 100 | Cn1c(=O)c(C(=O)NCC(=O)O)c(O)c2cc(-c3ccccc3C(F)(F)F)cnc21 [Example 42, N-((4-Hydroxy-1-methyl-2-oxo-6-(2-(trifluoromethyl)phenyl)-1,2-dihydro-1,8-naphthrydin-3-yl)carbonyl)glycine]
29 | 100 to 500 | Cn1c(=O)c(C(=O)NCC(=O)O)c(O)c2cc(-c3ccncc3)cnc21 [Example 43, 2-(4-Hydroxy-1-methyl-2-oxo-6-(pyridin-4-yl)-1,2-dihydro-1,8-naphthyridine-3-carboxamido)acetic acid]
